In patent US20110263694A1, “Use of Xanthone Derivatives as a Medicament for Cancer” (MUSEUM NATIONAL D'HISTOIRE NATURELLE, priority 2008, published 2011):

How the values were obtained:
ESKOL cells [1] = test: Annexin V-FITC labelling of ESKOL cells (phosphatidylserine externalisation, flow cytometry); format: cell-based, human; settings: 1 μg/ml, 24 hours; for % Annexin V+ cells: ESKOL cells, after subtraction of control value
From the text: The induction of apoptosis was further confirmed by assessing the percentage of cells expressing phosphatidylserine at the outer leaflet of the plasma membrane by flow cytometry.
The phosphatidylserine (PS) externalisation, a membrane marker of cells undergoing apoptosis, was quantified by specific binding of FITC-conjugated annexin V (Bender Medsystems, Vienna, Austria), with or without simultaneous labelling with propidium iodide (PI), according to a modification of the technique described by Koopman (Koopman et al, Blood 1994; 84:1415-1420). The percentages of annexin V-FITC positive and PI negative cells were determined by cytometry on an EPICS Altra flow cytometer (Beckman Coulter).
The ESKOL cells (10^6/ml) were cultured in the absence (C=control) or the presence of 1 μg/ml of the various Allanblackia molecules. After 24 hours of incubation, the percentage of cells labelled with Annexin V-FITC was measured by flow cytometry as previously indicated. Results are expressed after subtraction of the value for control unstimulated cells. P values were estimated by Kolmogorov-Smirnov analysis using the Statview software.

purified B-lymphocytes = test: MTT cytotoxicity on purified normal B-lymphocytes; format: cell-based, human; settings: 5 or 10 μg/ml, 48 hours; FIG. 5C
Method: (§1) FIG. 5: The effect of the compounds M1, M2, M4, M5 and M6 on the viability and apoptosis of normal lymphocytes was evaluated as indicated in the Examples section. A/ PBMC isolated from the blood of normal volunteers were incubated at 2×10^6/ml for 48 hours in the presence of medium alone (grey bar) or containing 1 μg/ml (black bar) or 10 μg/ml (slashed bars) of the different compounds. At the end of the incubation time, the percentage of enrichment in cytoplasmic nucleosomes was evaluated as indicated in the Examples Section. PBMC (A) and purified B lymphocytes (C) from normal blood donors were incubated for 48 hours with medium alone (grey bar) or containing 5 μg/ml (black bar) or 10 μg/ml (slashed bar) of the selected reagents M1, M2, M4 and M6. Viability was estimated after labelling the cells with a 5 hours pulse of MTT and determination of the absorbance at 540 nm as indicated in the Examples Section.
(§2) Leukemia cells from B-CLL patients were adjusted at 2×10^6/ml and 200 μl aliquots were distributed in triplicate samples in the wells of a 96-well microtitration plate and cultured in the absence or presence of the various reagents. After 18 hours of incubation at 37° C. in a humidified atmosphere containing 5% CO2, 20 μl of a 5 mg/ml solution of MTT (Sigma, St Louis, Mo., USA) were added to the wells for an additional 6 hours incubation. The microplates were centrifuged at 400×g for 20 min, the supernatants carefully discarded and 200 μl of DMSO were added to the wells to dissolve the precipitates of formazan. The optical density was measured with the use of a microplate reader (Victor-2, Wallac, Perkin Elmer, Norwalk, Mont., USA) at the wavelength of 540 nm.
(§3) Blood samples from healthy donors were obtained from the Institut Francais du Sang as residues from platelet preparations. The healthy blood donors were under 60 years old, according to the French legislation, and therefore they could not be exactly age-matched with the B-CLL patients. PBMC were prepared as described elsewhere (Zhao et al, Blood 1998; 92: 1031-1043) and normal B-lymphocytes were purified by positive selection on anti-CD19-coated magnetic beads according to the specifications of the manufacturer (Dynal, Oslo, Norway) (Kern et al, Blood 2004; 103: 679-688). Their purity usually ranged from 92% to 95%, as estimated by labelling with an anti-CD20-phycoerythrin (PE) antibody, and monocyte contamination never exceeded 2% (Kern et al, Blood 2004; 103: 679-688).

ESKOL cells [2] = test: Antiproliferative effect on ESKOL cells (viable cell count, Coulter counter); format: cell-based, human; settings: 1 and 10 μg/ml; 1, 2 or 4 days; FIGS. 1A and 1B
Method: FIG. 1: The antiproliferative effects of M1, M2, M4, M5 and M6 were compared as indicated in the Examples Section on ESKOL cells. ESKOL cells were seeded at 2×10^5 cells/ml in the wells of micro-titration plate in the presence or absence (medium alone: ◯, DMSO: […]) of M1 (□), M2 (▪), M4 (▴), M5 ([…]), M6 (◯) at the concentrations of 1 μg/ml (A) and 10 μg/ml (B). After various times of incubation (1, 2 or 4 days), aliquots were harvested and the concentration of viable cells was measured in a Coulter counter as indicated in the examples.
The anti-proliferative effects of the isolated molecules were investigated on the ESKOL cell line derived from a hairy cell leukemia patient, a chronic B cell malignancy (Harvey et al, Leuk Res. 1991; 15: 733-744).
Cells were routinely cultured at seeding densities of 2×10^6 cells/ml in RPMI-1640 medium supplemented with 2 mM glutamine, 1 mM sodium pyruvate, 100 IU/ml penicillin, 100 μg/ml streptomycin and 10% FCS (PAA Laboratories, Pasching, Austria) and cultures were performed at 37° C. in an humidified atmosphere containing 5% CO2.
For the assay, ESKOL cells were seeded at 2×10^5/ml in 24-well microtitration plate, together with two concentrations (1 and 10 μg/ml) of the […] xanthones or 1% DMSO (solvent) as control. After 1, 2 and 4 days of culture, aliquots of cells were collected and the cell concentration was evaluated by counting the number of viable cells with a Coulter Multisizer counter Z2 (Coultronics, Margency, France) allowing the discrimination between viable and dead cells and debris according to size distribution.
Cells were cultured in duplicates or triplicates and each experiment repeated 2 to 5 times.

normal PBMC = test: MTT cytotoxicity on normal PBMC; format: cell-based, human; settings: 5 or 10 μg/ml, 48 hours; FIG. 5B
Method: as §1, §2, §3

B-CLL cells = test: MTT viability of freshly isolated B-CLL cells; format: cell-based, human; settings: FIG. 3, 6 B-CLL patients
Method: FIG. 3: The effect of the molecules M1, M2, M4, M5 and M6 on the viability of B-CLL cells was determined. Tumour cells freshly isolated from B-CLL patients were suspended at 2×10^6/ml in complete RPMI-1640 medium and incubated for 48 hours in the presence or absence of either 1 μg/ml (black bars) or 10 μg/ml (gray bars) of the various molecules. MTT was incorporated into the cells during the last 5 hours of incubation and the viability was measured by recording the formation of the formazan precipitate as described in the Examples section. The results are expressed as the percentage of the viability of the treated cells in comparison with control cells incubated with medium alone taken as 100% and represent the mean±SE of 6 B-CLL patients.
Blood samples from B-CLL patients were obtained from the Haematology Department of Hôtel-Dieu hospital (Paris, France) after written informed consent, in accordance with the rules and tenets of the revised Helsinki protocol. Diagnosis was established according to standard clinical and international CLL workshop criteria, including lymphocyte morphology and co-expression of CD5, CD20 and CD23 antigens. A total of 12 patients (6 men and 6 women) with an age ranging 50-84 years (mean±SD: 68±8.8 years) were selected and the time since diagnosis varied between 0 (newly diagnosed patients) and 10 years. The patients were randomly chosen for each type of experiment inasmuch as CD38 and ZAP-70 expression, cytogenetic analysis and mutational VH status were only available for a fraction of them, thus hampering a risk-group analysis. The leukemia B-cells were isolated with purity greater than 96%, as previously described (Zhao et al, Blood 1998; 92: 1031-1043). All the experiments were performed with freshly purified B-CLL leukemia cells.
M1, M2, M4, M5 and M6 were thus tested for their possible action on the viability of these leukemia cells by the MTT assay that relies on the integrity of the mitochondrial succinyl dehydrogenase.
as §2

ESKOL cells [3] = test: Enrichment in cytoplasmic nucleosomes (DNA cleavage) in ESKOL cells; format: cell-based, human; settings: 2 days, 1 or 10 μg/ml; FIG. 2B
Method: B/ The percentage of enrichment in cytoplasmic nucleosomes was evaluated simultaneously as a surrogate for DNA cleavage.
The detection of cytoplasmic histone-associated DNA fragments (mono- and oligonucleosomes) was performed in cell lysates from aliquots of 20,000 cells using an ELISA with anti-histone and anti-DNA fragment mAbs (Cell Death Detection ELISA^PLUS, Roche Diagnostics, Indianapolis, Ind., USA) as previously described (Billard et al, Leuk Lymphoma 2002; 43: 1991-2002).

histamine H1 receptor = settings: Chairungsrilerd et al 1996; cited from earlier work
[4] = test system: human colon cancer DLD-1 cells; settings: Matsumoto 2005; cited from earlier work
[5] = test system: human promyelocytic leukemia HL-60 cell line; settings: Matsumoto et al 2003; cited from earlier work
Plasmodium = settings: literature; cited from earlier work
[6] = test system: human A375 melanoma cell line; settings: Azebaze et al 2006; cited from earlier work
[7] = test system: SK-OV3 ovarian cancer cells; settings: Lee et al 2005, read-out: IC50 cytotoxic activity; cited from earlier work
[8] = test system: human A549 lung cancer cells; settings: Lee et al 2005, read-out: IC50 cytotoxic activity; cited from earlier work

Compound | % Annexin V+ cells (ESKOL cells [1]) [%] | cytotoxic effect on purified normal B-lymphocytes (MTT) (purified B-lymphocytes) | proliferation of ESKOL cells (ESKOL cells [2]) | cytotoxic effect on normal PBMC (MTT) (normal PBMC) | viability of B-CLL cells (MTT) (B-CLL cells; 1 μg/ml) | viability of B-CLL cells (MTT) (B-CLL cells; 10 μg/ml) | increase in the percentage of Annexin V positive ESKOL cells (in words) (ESKOL cells [1]) | DNA breakdown (enrichment in cytoplasmic nucleosomes) in ESKOL cells (ESKOL cells [3]) | histamine H1 receptor antagonism (histamine H1 receptor) | cell-cycle arrest and apoptosis in DLD-1 cells [4] | apoptosis induction in HL-60 cell line [5] | antiplasmodial activity (Plasmodium) | cytotoxicity on A375 cell line [6] | IC50 [7] [µM] | IC50 [8] [µM]
COc1ccc2oc3cc(O)c(CC=C(C)C)c(O)c3c(=O)c2c1 [M1, 1,3 dihydroxy-7-methoxy-2(3-methylbut-2enyl)xanthone] | 5.6 | no toxic effect | markedly and dose-dependently slowed down the proliferation | no toxic effect | no significant effect | marked reduction in the viability |  |  |  |  |  |  |  |  | 
COc1c(O)cc2oc3cc(O)c(CC=C(C)C)c(O)c3c(=O)c2c1CC=C(C)C [M2, α-mangostin] | 15.0 | somewhat sensitive | markedly and dose-dependently slowed down the proliferation | somewhat sensitive | no significant effect | marked reduction in the viability | significant increase | potent inducers of DNA breakdown | histamine H1 receptor antagonist | induces cell-cycle arrest and apoptosis | induces apoptosis | displays antiplasmodial activity |  |  | 
CC(C)=CCc1c(O)cc2oc3c(c(=O)c2c1O)C(CC=C(C)C)(CC=C(C)C)C(=O)C(O)=C3 [M4, allanxanthone C] | 10.2 | no toxic effect | markedly and dose-dependently slowed down the proliferation | no toxic effect | no significant effect | marked reduction in the viability | to a lesser degree | potent inducers of DNA breakdown |  |  |  |  |  |  | 
CC(C)=CCC/C(C)=C/Cc1c(O)c(O)cc2oc3cc(O)c(CC=C(C)C)c(O)c3c(=O)c12 [M5, norcowanin] | 9.4 |  | markedly and dose-dependently slowed down the proliferation |  | no significant effect | marked reduction in the viability | to a lesser degree | potent inducers of DNA breakdown |  |  |  | antiplasmodial activity | weak cytotoxicity |  | 
C=CC(C)(C)c1c2c(c(O)c3c(=O)c4ccc(O)c(O)c4oc13)C=CC(C)(C)O2 [M6, Macluraxanthone] | 36.5 | somewhat sensitive | markedly and dose-dependently slowed down the proliferation | somewhat sensitive | no significant effect | marked reduction in the viability | significant increase | potent inducers of DNA breakdown |  |  |  |  |  | 4.24 | 2.88
allanxanthone C [M4] |  |  |  |  |  |  |  |  |  |  |  | displays antiplasmodial activity | cytotoxicity |  | 
